Source: patent publication US10752617B2 (GALDERMA RESEARCH & DEVELOPMENT, priority 2014, dated 2020)

How the values were obtained:
[1] = target: T1, GAL4-RORγ (GAL4 DBD fused to the ROR gamma ligand-binding domain) (Homo sapiens, UniProt P51449); experiment: GAL4-RORγ transactivation (luciferase reporter, HG5LN HeLa line); format: cell-based; conditions: HG5LN HeLa cells, 18 hours incubation, luciferase luminescence, read-out: IC50 hRORg
T1 construct: expressed in transfected cells; host or cells: HG5LN (HeLa line with GAL4-responsive luciferase reporter)
T1 sequence (P51449 269-508 limits assumed): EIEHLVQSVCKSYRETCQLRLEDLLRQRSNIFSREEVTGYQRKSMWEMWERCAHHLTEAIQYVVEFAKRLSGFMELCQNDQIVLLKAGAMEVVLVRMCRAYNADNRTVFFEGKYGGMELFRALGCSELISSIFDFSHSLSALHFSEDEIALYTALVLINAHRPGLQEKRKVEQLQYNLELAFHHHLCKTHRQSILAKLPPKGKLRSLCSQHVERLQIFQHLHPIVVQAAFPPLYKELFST
Source text: (§1) In the tables described above, the median inhibitory concentrations IC50 for the compounds belonging to formula (I) according to the invention have been given according to the following models:
GAL4-RORγ Transactivation
The RORγ transactivation model was developed from the line HG5LN, which is a HeLa line that stably expresses a luciferase reporter gene controlled by a pentamer of the GAL4 recognition domain of yeast and of a β-globin promoter. The HG5LN line was stably transfected by the DNA-binding domain (DBD) of GAL4 fused to the ROR gamma ligand-binding domain (LBD). Molecules that inhibit the ROR gamma constitutive activity reduce the luciferase expression, thus leading to a reduction in the emitted luminescence.
The cells are seeded in 384-well plates (5000 cells in 45 μL/well of culture medium containing 10% fetal calf serum) and incubated for 4 hours at 37° C., 5% CO2. 5 μL of the test molecules (compounds described in the tables described above) are then added to each well and the plates are incubated for 18 hours at a temperature of 37° C. under 5% of CO2. 20 μL of luciferase substrate (Promega) are added to each well and the luminescence emitted is read by a microplate reader.
The luminescence units (“RLU”) are normalized by positive controls (“POS” containing a saturated concentration of N-(2,2,2-trifluoroethyl)-N-[4-[2,2,2-trifluoro-1-hydroxy-1-(trifluoromethyl)ethyl]phenyl])benzenesulfonamide and negative controls (“NEG” containing DMSO): % inhibition=((RLU−NEG)*100)/(POS−NEG). The IC50 values are calculated from a 4-parameter logistic model using the XLFit software (IDBS).

[2] = system: IL-17A secretion by CD4+ cells; experiment: IL-17A secretion by activated CD4+ cells (HTRF); format: cell-based; conditions: 96 h; human CD4+ cells activated with anti-CD3 and anti-CD28, 4 days of incubation, inhibitors 1000 nM to 0.05 nM; read-out: IC50 hCD4/IL17
Experimental: as §1
This model allows measurement of the effect of inhibitors on IL-17A secretion by CD4+ cells. The cells are frozen CD4+ cells (STEMCELL, #70026), isolated from peripheral human blood and activated with anti-CD3 and anti-CD28 antibodies. The amount of IL-17a secreted is measured by the TR-FRET (kit HTRF® Human Interleukin 17A (Cisbio, #64H17PEC)) technology.
The cells are rapidly thawed, resuspended in their culture medium (RPMI inactivated 10% FCS) supplemented with soluble anti-CD28 antibodies and seeded (100 000 cells/well) in 96-well plates precoated with anti-CD3 antibodies. The cells are then treated with the ranges of inhibitors to be tested (from 1000 nM to 0.05 nM, 0.1% DMSO). After 4 days of incubation, the HTRF signal is measured using a microplate reader (λexcitation=337 nm, λemission=620/665 nm). The ratios obtained (665/620) are normalized relative to the positive control (cells activated with anti-CD3 and anti-CD28, 0.1% DMSO). The IC50 values are calculated from a 4-parameter logistic model using the XLFit software (IDBS).

Compound | IC50 [1] [nM] | IC50 [2] [nM]
CCc1ccc(N(C(CC)CC)S(=O)(=O)c2ccc3c(cnn3CC3CCOCC3)c2)cc1 [Compound 1, 1-(tetrahydropyran-4-ylmethyl)-1H-indazole-5-sulfonic acid (4-ethylphenyl)(1-ethylpropyl)amide] | 100 to 1000 | 100 to 1000
CCc1ccc(N(CC(C)C)S(=O)(=O)c2ccc3c(cnn3Cc3ccncc3)c2)cc1 [Compound 36, N-(4-ethylphenyl)-N-isobutyl-1-(pyridin-4-ylmethyl)-1H-indazole-5-sulfonamide] | 100 to 1000 | < 100
CCc1ccc(N(CC(C)C)S(=O)(=O)c2ccc3c(cnn3CC3COC3)c2)cc1 [Compound 37, N-(4-ethylphenyl)-N-isobutyl-1-(oxetan-3-ylmethyl)-1H-indazole-5-sulfonamide] | 100 to 1000 | < 100
CCc1ccc(N(CC(C)C)S(=O)(=O)c2ccc3c(cnn3CC3CCOCC3)c2)cc1 [Compound 39, N-(4-ethylphenyl)-N-isobutyl-1-((tetrahydro-2H-pyran-4-yl)methyl)-1H-indazole-5-sulfonamide] | 100 to 1000 | 100 to 1000

Results, then the molecule that gave them:

IC50 [1] [nM] | IC50 [2] [nM] | Compound
100 to 1000 | < 100 | COC(=O)c1ccc(N(CC(C)C)S(=O)(=O)c2ccc3c(cnn3CC3CCOCC3)c2)c(C)c1 [Compound 56, methyl 4-{isobutyl[1-(tetrahydropyran-4-ylmethyl)-1H-indazole-5-sulfonyl]amino}-3-methylbenzoate]
< 100 | < 100 | CCc1ccc(N(CC(C)C)S(=O)(=O)c2ccc3c(CC4CCOCC4)n[nH]c3c2)cc1 [Compound 63, 3-(tetrahydropyran-4-ylmethyl)-1H-indazole-6-sulfonic acid (4-ethylphenyl)isobutylamide]
< 100 | < 100 | CCc1ccc(N(CC(C)C)S(=O)(=O)c2ccc3c(CN4CCOCC4)n[nH]c3c2)cc1 [Compound 64, 3-morpholin-4-ylmethyl-1H-indazole-6-sulfonic acid (4-ethylphenyl)isobutylamide]
> 1000 | > 1000 | Cc1cc(C)c(N(CC(C)C)S(=O)(=O)c2ccc3c(cnn3CC3CCOCC3)c2)cn1 [Compound 71, 1-(tetrahydropyran-4-ylmethyl)-1H-indazole-5-sulfonic acid (4,6-dimethylpyridin-3-yl)isobutylamide]
100 to 1000 | 100 to 1000 | CC(C)CN(c1ccc(N(C)C)cc1)S(=O)(=O)c1ccc2c(cnn2CC2CCOCC2)c1 [Compound 72, 1-(tetrahydropyran-4-ylmethyl)-1H-indazole-5-sulfonic acid (4-dimethylaminophenyl)isobutylamide]
